Data from patent US11078222B2, “Hydroxybenzoic acid derivatives, methods and uses thereof” (UNiVERSIDADE DO PORTO, priority 2016, dated 2021).

Legend:
[1] = test system: human hepatocellular carcinoma cells (HepG2); test: Cytotoxicity, SRB method; type: cell-based
Procedure: In an embodiment, and as an example, the cytotoxicity of AntiOxBENs was assessed using monolayer cultures of human hepatocytes from hepatocellular carcinoma (HepG2) and SRB method (FIG. 8).
In an embodiment, the cytotoxicity profile of AntiOxBENs was evaluated in human hepatocellular carcinoma HepG2 cells. Human hepatocellular carcinoma HepG2 cells were cultured in high-glucose medium composed by Dulbecco's modified Eagle's medium (DMEM; D5648) supplemented with sodium pyruvate (0.11 g/L), sodium bicarbonate (1.8 g/L) and 10% fetal bovine serum (FBS) and 1% of antibiotic penicillin-streptomycin 100× solution. Cells were maintained at 37° C. in a humidified incubator with 5% CO2. HepG2 cells were seeded at density of 4×10^4 cells/mL and grown for 24 hours before treatment.
In an embodiment the cytotoxicity screening was performed as follows: cells were placed on 48-well plate (2×10^4 cells/500 μL) and then were incubated during 48 hour with AntiOxBENs concentrations ranging 25 μM to 500 μM. After incubation, sulforhodamine B (SRB) assay was used for cell density determination based on the measurement of cellular protein content. Briefly, after incubation, the medium was removed and wells rinsed with PBS […]. Cells were fixed by adding 1% acetic acid in 100% methanol for at least 2 hours at −20° C. Later, the fixation solution was discarded and the plates were dried in an oven at 37° C. Two hundred and fifty microliters of 0.5% SRB in 1% acetic acid solution was added and incubated at 37° C. for 1 h. The wells were then washed with 1% acetic acid in water and dried. Then, 500 μl of Tris (pH 10) was added and the plates were stirred for 15 min. Finally, 200 μl of each supernatant was transferred in 96-well plates and optical density was measured at 540 nm. Data are means±SEM of four independent experiments and the results are expressed as percentage of control (control=100%), which represents the cell density without any treatment in the respective time point.

[2] = test system: rat liver mitochondria (RLM); test: Mitochondrial transmembrane electric potential (safranine fluorescence); type: biochemical
Procedure: In an embodiment, and as an example, the toxicity effects of some AntiOxBENs and MitoQ on the mitochondrial bioenergetics, namely on RLM Δψ and respiration parameters, were measured. The Δψ represents the main component of the electrochemical gradient generated by mitochondrial respiration and accounts for more than 90% of the total available energy. For mitochondrial respiration assays, glutamate/malate (for complex I) and succinate (for complex II) were used as substrates. In addition, the mitochondrial oxidative phosphorylation coupling index, known as respiratory control ratio (RCR, state 3/state 4 respiration) and ADP/O index (the coupling between ATP synthesis and oxygen consumption) were also calculated. AntiOxBENs and MitoQ were tested at antioxidant-relevant concentrations, with 10 μM being the highest concentration.
In an embodiment, the evaluation of AntiOxBENs effect on mitochondrial transmembrane electric potential (Δψ) was performed as follows: the mitochondrial transmembrane electric potential (Δψ) was estimated through the evaluation of fluorescence changes of safranine (5 μM) and was recorded on a spectrofluorometer operating at excitation and emission wavelengths of 495 and 586 nm, with a slit width of 5 nm. Increasing concentrations of AntiOxBENs (2.5-10 μM) were added to the reaction medium (200 mM sucrose, 1 mM KH2PO^4, 10 mM Tris (pH 7.4) and 10 μM EGTA) containing respiratory substrates glutamate/malate (5 mM and 2.5 mM respectively) or succinate (5 mM) and RLM (0.5 mg in 2 mL final volume) and allowed to incubate for a 5 min period prior to initiate the assay, at 25° C. In this assay, safranine (5 μM) and ADP (25 nmol) were used to initiate the assay and to induce depolarization, respectively. Then, 1 μM FCCP was added at the end of all experiments to depolarize mitochondria. Δψ was calculated using a calibration curve obtained when RLM were incubated in a K^+-free reaction medium containing 200 mM sucrose, 1 mM NaH2PO4, 10 mM Tris (pH 7.4) and 10 μM EGTA, supplemented with 0.4 μg valinomicin. […] “Repolarization” corresponded to the recovery of membrane potential after the complete phosphorylation of ADP added. Lag phase reflected the time required to phosphorylate the added ADP. Isolated RLM developed a Δψ≈226 mV and Δψ≈202 mV (negative inside) when glutamate/malate or succinate were used, respectively. Data are means±SEM of five independent experiments.

[3] = DPPH radical scavenging activity (total antioxidant capacity); type: biochemical; details: ethanol, 515 nm, 45 min
Procedure: (§1) The radical scavenging activity of AntiOxClNs was evaluated by means of total antioxidant capacity assays based on DPPH., ABTS.^+ and GO. radicals. All these methods involved the spectrophotometric measurement of the absorbance decrease resulting from radical (DPPH., ABTS.^+ or GO.) deactivation with an antioxidant. The results were expressed in IC50, which is defined as the minimum antioxidant concentration necessary to reduce the amount of radical by 50%. Antioxidant assays were performed in a multiplate reader (Powerwave XS Microplate Reader) from Bio Tech instruments.
A DPPH ethanolic solution (6.85 mM) was also prepared and then diluted to reach the absorbance of 0.72±0.02 at 515 nm. Each compound solution (20 μL) was added to 180 μL of DPPH. solution in triplicate, and the absorbance at 515 nm was recorded minutely over 45 minutes. […] Dose-response curves were established for the determination of IC50 values.

[4] = test system: rat liver mitochondria (RLM); test: Mitochondrial uptake by energised RLM, TPP-selective electrode; type: in vitro ADME
Procedure: In an embodiment, and as an example, the mitochondrial uptake of some AntiOxBENs was assessed in isolated rat liver mitochondria (RLM) in response to the membrane potential. AntiOxBENs can accumulate inside mitochondria driven by the Δψ (FIG. 3A). Different AntiOxBENs accumulation outlines within the mitochondrial matrix have been measured. […] The following ranking order was attained: AntiOxBEN2<AntiOxBEN1<AntiOxBEN3.
In an embodiment, the AntiOxBENs mitochondria uptake by energized RLM was evaluated as follows: RLM (0.5 mg protein/mL) were incubated with AntiOxBENs at 37° C. under constant stirring in 1 mL of KCl medium (120 mM KCl, 10 mM HEPES, pH 7.2 and 1 mM EGTA). Five sequential 1 μM additions of each AntiOxBENs were performed to calibrate the electrode response in the presence of rotenone (1.5 μM). Then, succinate (10 mM) was added to generate […]. Valinomicin (0.2 μg/mL) was added at the end of the assay to dissipate Δψ. The measurements were performed with an ion-selective electrode, which measure the distribution of tetraphenylphosphonium cation (TPP+) and Ag/AgCl2 electrode as reference. The mitochondrial accumulation ratio was calculated by the disappearance of AntiOxBENs from extra- to intramitochondrial medium assuming an intramitochondrial volume of 0.5 μL/mg protein and a binding correction for the mitochondrial uptake of TPP compounds.

[5] = ABTS radical cation scavenging activity; type: biochemical; details: ethanol, 15 min
Procedure: as §1
In an embodiment, the ABTS.^+ scavenging activity was evaluated as follows: ethanolic solutions of the test compounds with increasing concentrations (range between 10 μM and 500 μM) were prepared. ABTS. radical cation solution was obtained by addition of 150 mM aqueous potassium persulfate solution (163 μL) to 10 mL of 7 mM aqueous ABTS solution followed by storage in the dark at room temperature for 16 h (2.45 mM final concentration). The solution was then diluted in ethanol to reach the absorbance of 0.72±0.02. After addition of the compound (20 μL), in triplicate, to ABTS.^+ solution (180 μL) the spectrophotometric measurement was carried out each minute over 15 minutes. […] Dose-response curves were established for the determination of IC50 values.

| SMILES | ADP-induced depolarization (ΔΨ in - mV) ([2]; Glutamate/Malate, 2.5 μM) | Lag Phase ([2]; Glutamate/Malate, 2.5 μM) | Maximum potential (ΔΨ in - mV) ([2]; Glutamate/Malate, 2.5 μM) | Repolarization Potential (ΔΨ in - mV) ([2]; Glutamate/Malate, 2.5 μM) | ADP-induced depolarization (ΔΨ in - mV) ([2]; Glutamate/Malate, 5 μM) | Lag Phase ([2]; Glutamate/Malate, 5 μM) | Maximum potential (ΔΨ in - mV) ([2]; Glutamate/Malate, 5 μM) | Repolarization Potential (ΔΨ in - mV) ([2]; Glutamate/Malate, 5 μM) | ADP-induced depolarization (ΔΨ in - mV) ([2]; Glutamate/Malate, 10 μM) | Lag Phase ([2]; Glutamate/Malate, 10 μM) | Maximum potential (ΔΨ in - mV) ([2]; Glutamate/Malate, 10 μM) | Repolarization Potential (ΔΨ in - mV) ([2]; Glutamate/Malate, 10 μM) | ADP-induced depolarization (ΔΨ in - mV) ([2]; Succinate, 2.5 μM) | Lag Phase ([2]; Succinate, 2.5 μM) | Maximum potential (ΔΨ in - mV) ([2]; Succinate, 2.5 μM) | Repolarization Potential (ΔΨ in - mV) ([2]; Succinate, 2.5 μM) | ADP-induced depolarization (ΔΨ in - mV) ([2]; Succinate, 5 μM) | Lag Phase ([2]; Succinate, 5 μM) | Maximum potential (ΔΨ in - mV) ([2]; Succinate, 5 μM) | Repolarization Potential (ΔΨ in - mV) ([2]; Succinate, 5 μM) | also measured |
| --- | --- | --- | --- | --- | --- | --- | --- | --- | --- | --- | --- | --- | --- | --- | --- | --- | --- | --- | --- | --- | --- |
| O=C(NCCCCCC[P+](c1ccccc1)(c1ccccc1)c1ccccc1)c1cc(O)c(O)c(O)c1.[Br-] [AntiOxBEN2, 6-(3,4,5-trihydroxybenzamido)hexyltriphenylphosphonium bromide] | 200.5 ± 17.5 - mV | 124.7 ± 19.2 s | 217.8 ± 18.8 - mV | 216.8 ± 17.9 - mV | 194.9 ± 15.6 - mV | 147.5 ± 31.2 s | 212.2 ± 19.8 - mV | 209.0 ± 17.8 - mV | 200.1 ± 18.2 - mV | 146.2 ± 30.9 s | 209.5 ± 19.1 - mV | 208.4 ± 18.6 - mV | 184.5 ± 19.2 - mV | 115.4 ± 21.0 s | 197.6 ± 18.2 - mV | 193.6 ± 17.8 - mV | 191.2 ± 17.8 - mV | 118.0 ± 26.4 s | 204.6 ± 18.1 - mV | 200.4 ± 17.0 - mV | concentrations at which cell proliferation was stimulated ([1]; HepG2, 48 hour, SRB): lower than 250 μM; ADP-induced depolarization (ΔΨ in - mV) ([2]; Succinate, 10 μM): 190.9 ± 16.8 - mV; Lag Phase ([2]; Succinate, 10 μM): 124.8 ± 37.2 s; Maximum potential (ΔΨ in - mV) ([2]; Succinate, 10 μM): 199.8 ± 16.0 - mV; Repolarization Potential (ΔΨ in - mV) ([2]; Succinate, 10 μM): 198.6 ± 17.2 - mV; IC50 [3]: 18.3 µM; accumulation ratio by rat liver mitochondria ([4]; energised RLM, succinate): AntiOxBEN2<AntiOxBEN1<AntiOxBEN3; IC50 [5]: 10.3 µM |
| O=C(CCCCC[P+](c1ccccc1)(c1ccccc1)c1ccccc1)NCCCCCCNC(=O)c1cc(O)c(O)c(O)c1.[Br-] [AntiOxBEN3, [5-(6-(3,4,5-trihydroxybenzamido)hexylamino)carbonylpentyl]triphenylphosphonium bromide] | 202.9 ± 18.7 - mV | 137.5 ± 20.3 s | 221.1 ± 20.2 - mV | 217.0 ± 17.7 - mV | 204.5 ± 21.6 - mV | 154.5 ± 21.5 s | 221.4 ± 22.6 - mV | 216.4 ± 21.3 - mV | 216.4 ± 25.3 - mV | 143.0 ± 21.7 s | 227.5 ± 26.3 - mV | 222.9 ± 25.4 - mV | 188.0 ± 19.7 - mV | 132.6 ± 22.7 s | 203.6 ± 16.6 - mV | 198.4 ± 18.4 - mV | 191.1 ± 20.0 - mV | 119.8 ± 32.2 s | 205.3 ± 19.4 - mV | 199.1 ± 19.2 - mV | concentrations at which cell proliferation was significantly inhibited ([1]; human, 48 h): higher than 250 μM; ADP-induced depolarization (ΔΨ in - mV) ([2]; Succinate, 10 μM): 198.2 ± 19.3 - mV; Lag Phase ([2]; Succinate, 10 μM): 114.4 ± 24.3 s; Maximum potential (ΔΨ in - mV) ([2]; Succinate, 10 μM): 207.9 ± 19.3 - mV; Repolarization Potential (ΔΨ in - mV) ([2]; Succinate, 10 μM): 207.5 ± 19.4 - mV; IC50 [3]: 18.7 µM; accumulation ratio by rat liver mitochondria ([4]; rat, 5 μM, pH 7.2): AntiOxBEN2<AntiOxBEN1<AntiOxBEN3; IC50 [5]: 9.6 µM |
